Results reported in ChEMBL document CHEMBL1133483, “Enhanced pneumocystis carinii activity of new primaquine analogues” (2000).

Columns and labels:
Format in all cases: functional
Pneumocystis carinii [1] = assay: Efficacy of compound was evaluated in rat infected with Pneumocystis carinii at a dose of 2 mg/Kg administered intraperitoneally
Pneumocystis carinii [2] = assay: Efficacy of compound was evaluated in rat infected with Pneumocystis carinii at a dose of 2 mg/Kg administered orally
Pneumocystis carinii [3] = assay: Efficacy of compound was evaluated in rat infected with Pneumocystis carinii at a dose of 2 mg/Kg administered subcutaneously

| Compound | Infection score (Pneumocystis carinii [1]) | Infection score (Pneumocystis carinii [2]) | Infection score (Pneumocystis carinii [3]) |
| --- | --- | --- | --- |
| CCOc1ccc(Oc2c(OC)cc(NC(C)CCCN)c3nccc(C)c23)cc1 (stereo unspecified) | 0 |  |  |
| CCCCCCCOc1ccc(Oc2c(OC)cc(NC(C)CCCN)c3nccc(C)c23)cc1 (stereo unspecified) | 0.71 | 1.25 |  |
| CCCCCCCCCCCCCCCCOc1ccc(Oc2c(OC)cc(NC(C)CCCN)c3nccc(C)c23)cc1 (stereo unspecified) | 4.5 |  |  |
| COc1cc(Cc2cnc(N)nc2N)cc(OC)c1OC.Cc1cc(NS(=O)(=O)c2ccc(N)cc2)no1 [CO-TRIMOXAZOLE] | 1.31 |  |  |
| COc1cc(NC(C)CCCN)c2ncccc2c1 (stereo unspecified) [PRIMAQUINE] |  |  | 4.3 |
